Test: Solubility properties in acrylate monomers
Assay type: physicochemical
Conditions: 0.2 g in 2.5 g TMP(3EO)TA, 40° C.
Method: For determining the solubility properties in acrylate monomers, which are customarily used for the preparation of overprint varnishes and UV-curable inks, 0.2 g each of the compounds obtained according to Examples 1 and 2 is stirred into 2.5 g of the acrylate monomer in question. In dipropylene glycol diacrylate (DPGDA) both compounds have dissolved within a period of 15 minutes at room temperature. In ethoxylated trimethylolpropane triacrylate (TMP(3EO)TA) the compound according to Example 2 dissolves within a period of 10 minutes at 40° C., while the compound according to Example 1 dissolves after only 4 minutes' heating at 40° C.

time to dissolve in ethoxylated trimethylolpropane triacrylate (TMP(3EO)TA)	Structure (SMILES)
4 min	Cc1cccc(C(=O)c2ccc(-c3ccccc3)cc2)c1 [Example 1, 3-methyl-4′-phenylbenzophenone]
≤ 10 min	Cc1cc(C)c(C(=O)c2ccc(-c3ccccc3)cc2)c(C)c1 [Example 2, 2,4,6-trimethyl-4′-phenylbenzophenone]
